Here are results for four compounds from patent US9051245B2 (UHA MIKAKUTO CO., LTD., priority 2011, dated 2015).

Where two headings read alike, the source gives them in different places.

In data set [1] the test system is HL-60 cells (human myeloid leukemia cells). Description: Cancer cell growth inhibitory action using HL-60 cells (Cell counting kit-8). Format: cell-based. The note with it: for IC50: HL-60 cells, 24 hours, read-out: Cell growth inhibition ability (IC50); for Effect of inhibiting the growth of the HL-60 cells compared with resveratrol and E-viniferin: relative to resveratrol and ε-viniferin. The protocol:
Next, in order to see the effect of each compound to cancer cells, the cancer cell growth inhibitory action using HL-60 cells (human myeloid leukemia cells) was tested.
As culturing of cells, one in which 4 mM glutamine (L-glutamine, Sigma-Aldrich, “G8540-100G”) and 10% FBS (fetal bovine serum, Biological Industries, “04-001-1A”) were added to a high nutrient medium […] (Sigma-Aldrich, “R0883”) was used as a culture solution, and then subculture was performed. For a test, a 96-well plate for cell culture (Corning, “3595”) was used. The number of cells was adjusted on the test day in such a manner that the number of the HL-60 cells was 5×10^5 cell/mL, and then seeded in the 96-well plate with 100 μL/well.
For the preparation of the samples, each compound was dissolved with DMSO (dimethylsulfoxide, Wako Pure Chemical Industries, “046-21981”), and then the final concentration in the culture solution of the HL-60 cells of the samples was adjusted to be 10 μM, 30 μM, 100 μM, and 300 μM, respectively, and then the test was started.
For the detection of the cell growth inhibitory effect, the detection was performed by a MTT method using “Cell counting kit-8” (Dojin Chemical Laboratory, “347-07621”). More specifically, 24 hours after starting the test, 10 μL of the detection liquid of the cell counting kit-8 was added to each well, and then sufficiently stirred. Thereafter, a shading reaction was performed, the absorbance at 450 nm was measured using a plate reader (Biorad Laboratories, “BIO-RAD Model 680”), and then the obtained data were treated. The cell viability is a value obtained by calculation under the conditions where the number of survival cells of the cells treated with the culture solution to which DMSO was added was 100% and the number of survival cells of the cells under the concentration of each compound was defined as a relative value. From the relationship between each sample concentration and the cell viability, the concentration IC50 (50% inhibitory concentration) which inhibits the cell growth by 50% was calculated.
(In general: Tetrazolium dyes change colour on reduction, which living cells bring about.)

In data set [2] the test system is Bacillus subtilis (NBRC 3134). In words: Antibacterial paper disc method. The format is cell-based. The conditions noted are these: 24 hours, read-out: Diameter of inhibition zone; for zone of inhibition at 1000 µM: NBRC3134, added concentration 1 mM; for zone of inhibition at 5000 µM: NBRC3134, added concentration 5 mM; for zone of inhibition at 10000 µM: NBRC3134, added concentration 10 mM. How it is done: An assay was performed by a paper disc method for the purpose of confirming the antibacterial action of the UHA4002 and 4003. The paper disc method is a known technique capable of easily investigating the antibacterial activity of a test substance by creating each inhibition zone of the test substance. The assay was performed using, as a fungus body, Bacillus subtilis (NBRC 3134) purchased from National Institute of Technology and Evaluation Biological Resource Center NBRC. For the raise of a fungus body and a culture method thereof, No. 702 which is a culture solution specified by NBRC was adjusted and used. The culture was performed at 37° C. The experiment method of the paper disc method ((Agar) culture solution, Culture method, Test preparation, Test method) was performed in accordance with a BSAC standardization disc sensitivity test method (8th edition). […] As a positive control, chloramphenicol (Wako Pure Chemical Industries, “036-10571”) of an antibacterial component to be used as a pharmaceutical agent was dissolved in DMSO and adjusted and, as a negative control, DMSO was used. The samples thus adjusted were immersed in the paper disc, disposed on an agar medium in which bacillus subtilis was seeded, cultured, and then, after 24 hours later, the measurement of the inhibition zone was performed. The reliability of this example is confirmed from the size of the inhibition zone by chloramphenicol.

Data set [3] concerns the target rat intestine derived lipase. In words: Lipase inhibitory action test (Lipase kit S). Format: biochemical. The note with it: 30° C., 10 minutes reaction. How it is done: As lipase, one obtained by suspending 100 mg of rat derived intestine acetone powder (manufactured by Sigma-Aldrich Japan) in 1 mL of 100 mM citric acid buffer (pH 6.0), stirring the same at 4° C. for 1 hour, centrifuging the same (at 15000 rpm for 45 minutes at 4° C.) to obtain a supernatant, and then diluting the supernatant by 1500 times was used as a lipase solution.
With respect to the sample preparation, those obtained by dissolving each compound with DMSO, and then preparing in such a manner as to be 0.1 mM, 0.5 mM, 1 mM, 2 mM, and 4 mM were used.
For measuring the activity, a “Lipase kit S” (Trade name, manufactured by Dainippon Pharmaceutical Co., Ltd.) was used. First, in accordance with a preparation method described in the catalog of the Lipase kit S, a color developing liquid was prepared. Reaction liquids in which 70 μL, of the color developing liquid, 2 μL of an esterase inhibitor, 10 μL of the lipase solution, and 10 μL of the samples (Final concentration: 10 μM, 50 μM, 100 μM, 200 μM, 400 μM, and 1000 μM) were mixed were prepared, preincubated at 30° C. for 5 minutes, and then 8 μl of a substrate solution described in the catalog was added. Then, a reaction was started. After reacting for 10 minutes, 150 μL of a reaction stop liquid prepared in accordance with the preparation method described in the catalog of the Lipase kit S was added to stop the reaction. […]

In data set [4] the test system is SCC-4 cells (human oral cancer cells). In words: Oral cancer cell growth inhibitory action using SCC-4 cells (Cell counting kit-8). Format: cell-based. The note with it: read-out: Cell growth inhibition ability (IC50). The protocol: For culturing of the SCC-4 cells, a DMEM/F-12 (1:1) culture medium (manufactured by GIBCO) containing 400 ng/mL hydrocortisone (manufactured by Sigma-Aldrich Japan), 1% antibiotic-antimycotic (manufactured by GIBCO), and 10% FBS (Fetal Bovine Serum, manufactured by ATCC) was used. For the test, a collagen I coat 96-well plate for cell culture (manufactured by Japan BD) was used, and SCC-4 cells whose number of cells was adjusted to be 5×10^5 cells/mL were seeded with 100 μL/well. The cells were cultured under the conditions of 37° C. and 5% CO2 for 24 hours, and were used for the test in a confluent state of 80% or higher.
With respect to the sample preparation, each compound was dissolved with DMSO, and then prepared in such a manner as to be 0.63 mM, 1.25 mM, 2.5 mM, 5 mM, and 10 mM. The samples were added in such a manner that the final concentration in the SCC-4 cell culture solution was 6.3 μM, 12.5 μM, 25 μM, 50 μM, and 100 μM, and then the test was started. The sample to which an equivalent amount of only DMSO as the solvent was added was used as a negative control.
The number of viable cells was quantified by an MTT method using a “Cell counting kit-8” in the same manner as in Example 3, and the concentration IC50 at which the cell growth is inhibited by 50% was calculated.

Data set [5] can be described thus: Physicochemical properties: solubility in solvents.
The nature of data set [6]: DPPH radical elimination method (antioxidation). The conditions noted are these: for IC50: DPPH radical, 20 minutes, absorbance 520 nm, read-out: Radical capturing ability (IC50); for Antioxidation activity compared with resveratrol: DPPH, relative to resveratrol. The protocol:
A test of the antioxidation effect of the UHA4002 and 4003 was performed. The test was performed by adopting a DPPH (1,1-diphenyl-2-picrylhydrazyl) radical elimination method. A technique thereof is mentioned below.
About the main experiment method of the DPPH radical elimination method, the test was advanced with reference to a technique described in “Methods for Functional Food Analysis” (Published by Korin Publishing Co., Ltd., edited by Kazuki SHINOHARA, Tateo SUZUKI, and Shuichi KAMINOGAWA, 2000). […] The DPPH reaction liquid was adjusted in such a manner as to be 400 μM DPPH (Sigma-Aldrich “D9132”), 50 mM MES (2-morpholinoethanesulphonic acid, Dojindo Laboratories, “345-01625”), and 75% ethanol. The reaction was performed in a 96-well plate (As One, “1-6776-03”), and 100 μL of the samples and 100 μL of the DPPH reaction liquid were placed, and then mixed. The mixture was allowed to stand still in a shading state for 20 minutes, and then each absorbance at 520 nm was measured with a plate reader.
The IC50 refers to a concentration of each sample which is considered to have an ability of eliminating 50% DPPH radical.

With `Oc1ccc(/C=C/c2cc(O)cc3c2C(c2ccc(O)cc2)Cc2cc(O)cc(O)c2-3)cc1` (single isomer, unassigned) [UHA 4002], the IC50 – broadly, the concentration that gives 50% inhibition – in data set [1] (Homo sapiens) worked out at 30 µM; in data set [3], 311 µM; in data set [4], 52.1 µM; in data set [6], 50 µM. Further, the “Effect of inhibiting the growth of the HL-60 cells compared with resveratrol and E-viniferin” value in data set [1] was “twice or higher”. Besides, the zone of inhibition – broadly, the size of the clear area around the sample on an inoculated plate – at 1000 µM in data set [2] stood at 8.5 mm. Besides, in data set [2], the zone of inhibition at 5000 µM came to 11 mm. Moreover, in data set [2], the zone of inhibition at 10000 µM came to 13.3 mm. Moreover, the Solubility entry was “Poorly soluble” in data set [5] (Chloroform); “Soluble” in data set [5] (DMSO); “Soluble” in data set [5] (Ethanol); “Poorly soluble” in data set [5] (Ethyl acetate); “Soluble” in data set [5] (Methanol); “Poorly soluble” in data set [5] (Water). The “Antioxidation activity compared with resveratrol” value in data set [6] was “as high as twice”.
In the case of `Oc1ccc(/C=C\c2cc(O)c3c(c2)-c2c(O)cc(O)cc2CC3c2ccc(O)cc2)cc1` (single isomer, unassigned) [UHA 4003], the IC50 in data set [1] (Homo sapiens) amounted to 30 µM; in data set [4], 32.4 µM; in data set [6], 50 µM. Also, the “Effect of inhibiting the growth of the HL-60 cells compared with resveratrol and E-viniferin” value in data set [1] is listed as “twice or higher”. Moreover, the zone of inhibition at 1000 µM in data set [2] came out at 8.3 mm. Also, the zone of inhibition at 5000 µM in data set [2] was 10.5 mm. The zone of inhibition at 10000 µM in data set [2] was found to be 11.8 mm. Further, the Solubility entry was “Poorly soluble” in data set [5] (Chloroform); “Soluble” in data set [5] (DMSO); “Soluble” in data set [5] (Ethanol); “Poorly soluble” in data set [5] (Ethyl acetate); “Soluble” in data set [5] (Methanol); “Poorly soluble” in data set [5] (Water). Moreover, in data set [6], the “Antioxidation activity compared with resveratrol” value is “as high as twice”.
Consider `Oc1ccc(/C=C/c2cc(O)cc(O)c2)cc1` [Resveratrol, trans-resveratrol, reference compound], for which, in data set [1] (Homo sapiens), the IC50 is 80 µM. In addition, in data set [2], the zone of inhibition at 1000 µM was 0 mm, the zone of inhibition at 5000 µM is 0 mm and the zone of inhibition at 10000 µM was 0 mm. The zone of inhibition at 50000 µM in data set [2] (NBRC3134, added concentration 50 mM) was 10 mm. In addition, in data set [3], the half-inhibitory concentration (IC50) is greater than 1000 µM. In data set [4], the IC50 was greater than 100 µM.
Consider `Oc1ccc(/C=C/c2cc(O)cc3c2[C@@H](c2cc(O)cc(O)c2)[C@H](c2ccc(O)cc2)O3)cc1` [ε-viniferin, reference compound], for which the half-maximal inhibitory concentration (IC50) in data set [1] worked out at 60 µM.
